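Dose response: 5 concentrations. Exposure: 48 h. Format: 96-well plates. Endpoint: linear interpolation; highest concentration if not reached. Abbreviation: GI50, concentration required for 50% inhibition of growth.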 Calls of active or inactive are those of the source. Rule as the data show it: active = GI50 up to about 1.1 µM and inactive = higher.
Key:
Experiment in all cases: growth of human tumour cells (NCI), 48 h
IGROV-1 = test system: IGROV-1
DU-145 = test system: DU-145
KM12 = test system: KM12
HCC 2998 = test system: HCC 2998
T47D = test system: T47D
SF-268 = test system: SF-268
SR = test system: SR
A498 = test system: A498
U-251 = test system: U-251
NCI-H23 = test system: NCI-H23
SF-295 = test system: SF-295
BT-549 = test system: BT-549
SK-MEL-2 = test system: SK-MEL-2
OVCAR-3 = test system: OVCAR-3
OVCAR-8 = test system: OVCAR-8
UO-31 = test system: UO-31
MOLT-4 = test system: MOLT-4
SK-MEL-28 = test system: SK-MEL-28
TK-10 = test system: TK-10
HT-29 = test system: HT-29

Measured: GI50

Brc1ccc2c(-c3nc(-c4c[nH]c5ccccc45)cs3)c[nH]c2c1
inactive: IGROV-1 30.5 µM | DU-145 23.4 µM | KM12 10 µM | HCC 2998 24 µM | T47D 30.9 µM | SF-268 > 56.8 µM | SR 13.2 µM | A498 22.7 µM | U-251 35.2 µM | NCI-H23 24.9 µM | SF-295 20.3 µM | BT-549 34.8 µM | SK-MEL-2 > 61.2 µM | OVCAR-3 39.7 µM | OVCAR-8 36.4 µM | UO-31 19.5 µM | MOLT-4 26.7 µM | SK-MEL-28 > 27.8 µM | TK-10 12.7 µM | HT-29 38.6 µM

CN(/N=C\c1ccc2ccccc2c1)C1=NCCCN1
inactive: IGROV-1 4.56 µM | DU-145 27.4 µM | KM12 15 µM | HCC 2998 11.7 µM | T47D 22.6 µM | SF-268 13.8 µM | SR 13.1 µM | A498 13.6 µM | U-251 20 µM | NCI-H23 25.9 µM | SF-295 11.9 µM | BT-549 1.87 µM | SK-MEL-2 15.2 µM | OVCAR-3 18.9 µM | OVCAR-8 15.4 µM | UO-31 9.93 µM | MOLT-4 2.39 µM | SK-MEL-28 14.6 µM | TK-10 14 µM | HT-29 12 µM

CN(C)CCNC(=O)c1cnn(C)c1[N+](=O)[O-]
inactive: IGROV-1 > 100 µM | DU-145 > 100 µM | KM12 68.1 µM | HCC 2998 > 100 µM | T47D > 100 µM | SF-268 > 100 µM | SR > 100 µM | A498 > 100 µM | U-251 > 100 µM | NCI-H23 73.5 µM | SF-295 > 100 µM | BT-549 > 100 µM | SK-MEL-2 > 100 µM | OVCAR-3 24.5 µM | OVCAR-8 > 100 µM | UO-31 > 100 µM | MOLT-4 > 100 µM | SK-MEL-28 > 100 µM | TK-10 > 100 µM | HT-29 33.4 µM

Cc1ccc(C2=CC(=O)OC(C[P+](c3ccccc3)(c3ccccc3)c3ccccc3)(c3ccccc3)O2)cc1 (stereo not given)
inactive: IGROV-1 13.7 µM | DU-145 16.5 µM | KM12 17.7 µM | HCC 2998 22.4 µM | T47D 20.6 µM | SF-268 18.5 µM | SR 15.6 µM | A498 15.1 µM | U-251 17.9 µM | NCI-H23 13.6 µM | SF-295 26.9 µM | BT-549 26.7 µM | SK-MEL-2 15.2 µM | OVCAR-3 16.4 µM | OVCAR-8 24.5 µM | UO-31 16.3 µM | MOLT-4 21.3 µM | SK-MEL-28 19 µM | TK-10 20.1 µM | HT-29 14.7 µM

COc1ccc(-n2c(=O)c3nc[nH]c3n(-c3ccc(OC)cc3)c2=S)cc1
inactive: IGROV-1 > 100 µM | DU-145 > 100 µM | KM12 > 100 µM | HCC 2998 > 100 µM | T47D > 100 µM | SF-268 > 100 µM | SR > 100 µM | A498 > 100 µM | U-251 > 100 µM | NCI-H23 > 100 µM | SF-295 > 100 µM | BT-549 > 100 µM | SK-MEL-2 > 100 µM | OVCAR-3 > 100 µM | OVCAR-8 > 100 µM | UO-31 > 100 µM | MOLT-4 > 100 µM | SK-MEL-28 > 100 µM | TK-10 > 100 µM | HT-29 > 100 µM

Cc1c(O)c(OC2OC(CO)C(O)C(O)C2O)cc2c1CC[C@@H]1C2(C)C(=O)C[C@]2(C)[C@@H]([C@@](C)(O)C(=O)CCC(C)(C)O)[C@H](O)C[C@@]12C (stereo not given in full)
inactive: IGROV-1 > 100 µM | DU-145 > 100 µM | KM12 > 100 µM | HCC 2998 > 100 µM | T47D > 100 µM | SF-268 > 100 µM | SR > 100 µM | A498 > 100 µM | U-251 > 100 µM | NCI-H23 > 100 µM | SF-295 > 100 µM | BT-549 > 100 µM | SK-MEL-2 > 100 µM | OVCAR-3 > 100 µM | OVCAR-8 > 100 µM | UO-31 > 100 µM | MOLT-4 > 100 µM | SK-MEL-28 > 100 µM | TK-10 > 100 µM | HT-29 > 100 µM

From ChEMBL document CHEMBL1201862, “PubChem BioAssay data set” (2004)
